This note sets out measurements from patent publication EP0091528A1, “-N-(1-propyl-2-pyrrolidylmethyl)-2-methoxy-5-sulfamoyl benzamide and its use against some sorts of depression” (priority 1982, dated 1983).

A short description of data set [1]: Acute toxicity, LD50 in mice by different routes. It is filed as in vivo. Conditions: souris; for LD50: mouse, in vivo, read-out: DL 50 (the source's name). The text has this: Au plan toxicologique, la détermination des DL 50 des deux produits administrés chez la souris par différentes voies ne révèle aucune différence majeure, le Sulpiride étant toutefois un peu moins toxique par voie buccale.

For data set [2], the system named is récepteurs dopamine du centre du vomissement. Nature of the data set: Antiemetic power in the dog (apomorphine-induced emesis). It is filed as in vivo. Conditions: vomiting induced by apomorphine. The source says:
D'une façon générale, ces dérivés benzamides interfèrent dans les mécanismes dopaminergiques du système nerveux. Leurs effets bloquants sur les récepteurs dopamine centraux leur confèrent des propriétés neuroleptiques. Leur effet bloquant sur les récepteurs dopamine du centre du vomissement se traduit par un puissant antagonisme à l'égard de l'effet émétisant de certains agonistes dopaminergiques, tels que l'apomorphine et les alcaloïdes de l'ergot de seigle.
Au plan pharmacologique, les interférences des deux composés dans le système dopamine ont été comparées par différents tests adaptés à la mise en évidence des effets antagonistes et agonistes. Il en résulte que : • 1) - le composé selon l'invention et le Sulpiride sont de très puissants antagonistes dans le test de l'emesis chez le chien où les vomissements sont provoqués par l'agoniste apomorphine.
Les valeurs des DE 50 montrent que les activités des deux composés sont équivalentes.

Data set [3] relates to récepteurs dopamine centraux. Nature of the data set: Inhibition of apomorphine-induced rearing (climbing) movement in mice. It is filed as in vivo. The conditions noted are these: souris, I.P., apomorphine 1 mg/kg S.C. The protocol: 2) - Les deux composés ne se distinguent pas non plus quand leur propriété antagoniste dopaminergique centrale est jugée par exemple d'après l'inhibition qu'ils provoquent du mouvement de redressement induit chez la souris par l'apomorphine (1 mg/kg S.C.).
Les doses inhibitrices 50 de ce mouvement sont voisines pour les deux composés, respectivement : […]

Data set [4] concerns stéréotypies induites chez le Rat par l'apomorphine (agoniste direct). Put plainly: Potentiation of apomorphine-induced stereotypies in the rat. It is filed as in vivo. The conditions noted are these: for DE50 vis-à-vis de l'apomorphine: Bliss method, two trials not named. The protocol: (§1) A cet effet, le composé de l'invention a été étudié vis-à-vis de la potentialisation des stéréotypies induites chez le Rat par deux agonistes dopaminergiques, l'apomorphine (agoniste direct) et la d-amphétamine (agoniste indirect).
(§2) Dans les deux essais, la dose d'agoniste est choisie telle qu'elle n'entraîne pas, chez tous les animaux d'expérience, l'apparition de mouvements stéréotypés de la sphère buccale de type léchage ou mâchonnement (Apomorphine : 0,250 mg.kg^-1 S.C. - d-amphétamine : 3 mg.kg^-1 I.P.).
(§3) L'observation de ce comportement stéréotypé chez un plus grand nombre d'animaux consécutif à l'administration de doses croissantes du composé de l'invention, injectées par voie I.P. 30 minutes avant l'agoniste, traduit un renforcement dopaminergique.
(§4) Les DE50 déterminées par la méthode de Bliss assortie des limites de confiance à 95% sont de 10,8 et 8,9 mg.kg.^-1 I.P. vis-à-vis de l'apomorphine et 1,4 et 2,6 mg.kg^-1 vis-à-vis de la d-amphétamine.

In data set [5] the test system is stéréotypies induites chez le Rat par la d-amphétamine (agoniste indirect). Nature of the data set: Potentiation of d-amphetamine-induced stereotypies in the rat. Conditions: for DE50 vis-à-vis de la d-amphétamine: Bliss method, two trials not named. It is filed as in vivo. The procedure: as §1, §2, §3, §4
Data set [6] in a line: Double-blind comparative clinical trial versus imipramine in depression. The conditions noted are these: for tolérance tant clinique que biologique: 450 mg par jour (compound), 150 mg par jour (IMIPRAMINE). It is filed as in vivo, humaine. The procedure:
En conséquence, un essai clinique comparatif en double aveugle a été mené mettant en oeuvre le composé selon l'invention et l'IMIPRAMINE, produit de référence indiscutable dans le traitement de certains états dépressifs.
Les posologies retenues ont été fixées : • . pour l'IMIPRAMINE en fonction des données acquises et de la posologie préconisée par le fabricant, c'est-à-dire : 150 mg par jour, dose atteinte progressivement en 5 jours; • . pour le composé selon l'invention, à partir des données recueillies par les études antérieures, c'est-à-dire : 450 mg par jour. Bien que cette posologie puisse, du fait de l'excellente tolérance du produit, être administrée d'emblée, pour se plier aux règles du double-aveugle et respecter le mode d'administration optimum pour l'IMIPRAMINE, cette dose n'a également été atteinte que le Sème jour après deux paliers successifs de : 150 et 300 mg par jour. Toutefois d'autres études permettent de penser que des doses plus faibles du composé selon l'invention aboutissent à des résultats similaires.
Ces doses ont été administrées pendant 28 jours consécutifs en mono- thérapie, dans toute la mesure du possible.
Pouvaient entrer dans l'étude, les sujets présentant une dépression authentique c'est-à-dire atteignant le score de 36 à la version simplifiée à 17 items de l'échelle de Hamilton.
La comparaison entre les deux produits a porté sur l'efficacité thérapeutique et sur la tolérance, 34 cas ayant été analysés. Pour établir cette comparaison, le protocole prévoyait trois bilans : • . avant le début du traitement (JO) • . au 10ème jour (J10) • . au 28ème jour (J28)
Chacun de ces bilans comportait obligatoirement : • . une B.P.R.S. • une échelle de Hamilton (26 items) • une appréciation par l'expert de 1"'intensité du syndrome dépressif" • une recherche des troubles somatiques associés à l'état dépressif.
De plus, à JO et à J28, il a été pratiqué une auto-appréciation de son état par le malade (S.D.S.) et un bilan biologique standard.
Enfin, en fin de traitement, il a été convenu d'exprimer une impression subjective globale sur l'intérêt du traitement pour chaque observation.

The mark [7] stands for this setting: Essai I, 4 mg.kg^-1 I.P. 30 min before Apomorphine 0,250 mg.kg^-1 S.C.
Where [8] appears, read: Essai I, 8 mg.kg^-1 I.P. 30 min before Apomorphine 0,250 mg.kg^-1 S.C.
Where [9] appears, read: Essai I, 16 mg.kg^-1 I.P. 30 min before Apomorphine 0,250 mg.kg^-1 S.C.
The mark [10] stands for this setting: Essai I, 2 mg.kg^-1 I.P. 30 min before d-Amphétamine 3 mg.kg^-1 I.P.
The mark [11] stands for this setting: Essai I, 4 mg.kg^-1 I.P. 30 min before d-Amphétamine 3 mg.kg^-1 I.P.
[12] abbreviates: Essai I, 8 mg.kg^-1 I.P. 30 min before d-Amphétamine 3 mg.kg^-1 I.P.
Setting [13] is: Essai II, 4 mg.kg^-1 I.P. 30 min before Apomorphine 0,250 mg.kg^-1 S.C.
The mark [14] stands for this setting: Essai II, 8 mg.kg^-1 I.P. 30 min before Apomorphine 0,250 mg.kg^-1 S.C.
Setting [15] is: Essai II, 16 mg.kg^-1 I.P. 30 min before Apomorphine 0,250 mg.kg^-1 S.C.
The mark [16] stands for this setting: Essai II, 1 mg.kg^-1 I.P. 30 min before d-Amphétamine 3 mg.kg^-1 I.P.
Where [17] appears, read: Essai II, 4 mg.kg^-1 I.P. 30 min before d-Amphétamine 3 mg.kg^-1 I.P.
Where [18] appears, read: Essai II, 16 mg.kg^-1 I.P. 30 min before d-Amphétamine 3 mg.kg^-1 I.P.

Several values for one entry are separate records, joined by “and”; a condition that tells them apart may be missing. Identical values can stand only once. Like-named read-outs stand apart in the source and are kept apart here.

For `CCN1CCCC1CNC(=O)c1cc(S(N)(=O)=O)ccc1OC` (stereo not shown) [Sulpiride, N-(1-éthyl-2-pyrrolidinyl-méthyl)-2-méthoxy-5-sulfamoyl benzamide, reference compound], the LD50 in data set [1] (ip, I.P.) was 210 mg/kg; in data set [1] (iv, I.V.), 43.5 to 44 mg/kg; in data set [1] (po, P.O.), 1800 to 2890 mg/kg; in data set [1] (sc, S.C.), 372 mg/kg. Further, in data set [2], the “Pouvoir antiémétique chez le chien DE 50 S.C.” value is listed as 3,5-4,8 γ/kg. Also, the “doses inhibitrices 50 du mouvement de redressement” value in data set [3] came out at 22 mg/kg I.P. In addition, the “% d'activité” value in data set [4] (setting [7]) was 15%; in data set [4] (setting [8]), 31%; in data set [4] (setting [9]), 15%; in data set [5] (setting [10]), 6%; in data set [5] (setting [11]), 13%; in data set [5] (setting [12]), 6%. Besides, the “Nombre d'animaux positifs/16” value was found to be 5 in data set [4] (setting [7]); 7 in data set [4] (setting [8]); 5 in data set [4] (setting [9]); 1 in data set [5] (setting [10]); 2 in data set [5] (setting [11]); 1 in data set [5] (setting [12]). The “DE50 mg.kg^-1 I.P. base” value in data set [4] (Essai I, I.P., base, Apomorphine 0,250 mg.kg^-1 S.C., 95% confidence limits in brackets) is “inactif”; in data set [5] (Essai I, I.P., base, d-Amphétamine 3 mg.kg^-1 I.P., 95% confidence limits in brackets), “inactif”. Besides, in data set [4] (I.P.), the “DE50 vis-à-vis de l'apomorphine” value is “inactif”. The “DE50 vis-à-vis de la d-amphétamine” value in data set [5] is recorded as “inactif”.
With `CN(C)CCCN1c2ccccc2CCc2ccccc21` [IMIPRAMINE, reference compound], in data set [6] (28 days), the “tolérance tant clinique que biologique” value is listed as “troubles de la série anticholinergique nettement plus importants et plus sévères”.
In the case of “N-(1-propyl-2-pyrrolidylméthyl)-2-méthoxy-5-sulfamoyl benzamide [Composé selon l'invention]”, the “DL 50” value is 181 to 203 mg/kg in data set [1] (I.P.), 51,7-52,6 mg/kg in data set [1] (I.V.), 1411 to 1423 mg/kg in data set [1] (P.O.) and 337 to 363 mg/kg in data set [1] (S.C.). Moreover, the “Pouvoir antiémétique chez le chien DE 50 S.C.” value in data set [2] is on record as 4,1 γ/kg. The “doses inhibitrices 50 du mouvement de redressement” value in data set [3] turned out to be 32 mg/kg I.P. The “% d'activité” value is recorded as 23% in data set [4] (setting [7]); 46% in data set [4] (setting [8]); 69% in data set [4] (setting [9]); 7% in data set [4] (setting [13]); 33% in data set [4] (setting [14]); 67% in data set [4] (setting [15]). The “% d'activité” value is reported as 38% in data set [5] (setting [10]); 69% in data set [5] (setting [11]); 88% in data set [5] (setting [12]); 38% in data set [5] (setting [16]); 81% in data set [5] (setting [17]); 94% in data set [5] (setting [18]). In addition, the “Nombre d'animaux positifs/16” value worked out at 6 in data set [4] (setting [7]); 9 in data set [4] (setting [8]); 12 in data set [4] (setting [9]); 2 in data set [4] (setting [13]); 6 in data set [4] (setting [14]); 11 in data set [4] (setting [15]). Also, the “Nombre d'animaux positifs/16” value in data set [5] (setting [10]) is reported as 6; in data set [5] (setting [11]), 11; in data set [5] (setting [12]) it was 14; in data set [5] (setting [16]), 6; in data set [5] (setting [17]), 13; in data set [5] (setting [18]) it was 15. The “DE50 vis-à-vis de l'apomorphine” value in data set [4] (I.P., listed as composé de l'invention) is 10,8 mg.kg^-1 and 8,9 mg.kg^-1. Also, the “DE50 vis-à-vis de la d-amphétamine” value in data set [5] (listed as composé de l'invention) was 1,4 mg.kg^-1 and 2,6 mg.kg^-1. Besides, in data set [6] (28 days), the “tolérance tant clinique que biologique” value is reported as “moindre fréquence de l'apparition ou de l'aggravation d'une symptomatologie somatique”. Moreover, in data set [6] (compared with IMIPRAMINE 150 mg par jour, compound 450 mg par jour, 28 days), the efficacité result is reported as “au moins égale à celle de l'IMIPRAMINE”. Further, the “rapidité d'action sur l'état dépressif” value in data set [6] (compared with IMIPRAMINE, J10 versus J28) is on record as “agit plus rapidement sur l'état dépressif que l'IMIPRAMINE”.
